Data published in PubChem BioAssay (NCI).
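Results reflect a 48-hour exposure of cells in 96-well plates to compound at five concentrations. The concentration for full growth arrest is given as TGI.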

Tested on: SN12K1 renal
Experiment: DTP human tumour cell line panel, 48 h

Work on CCc1ccccc1N1CCN(C(=O)c2cc(OC)c(OC)c(OC)c2)CC1 yielded a TGI of 0.194 µM.
Work on COC(C(=O)C(O)C(C)O)C1Cc2cc3cc(OC4CC(OC(C)=O)C(OC5CC(O)C(OC)C(C)O5)C(C)O4)cc(O)c3c(O)c2C(=O)C1OC1CC(OC2CC(OC3CC(C)(O)C(OC(=O)C(C)C)C(C)O3)C(O)C(C)O2)C(O)C(C)O1 (configuration not stated) yielded a TGI of 0.0126 µM.
